This is an account of results in patent publication US11046743B2 (Antaros Medical AB, priority 2015, dated 2021).

The data set in a line: Chemical stability in buffer, UPLC purity. It is filed as physicochemical.

In the case of “Tza-SQGTFTSDYSKQLDEQRAQEFIEWLLATGPESGAPPPSC(VS-DO3A)-NH2 [SEQ ID NO 49]”, the “Purity after 7 days” value is on record as 100% (pH 4.6, 4° C.); 97% (pH 4.6, 25° C.); 92% (pH 4.6, 40° C.); 98% (pH 7.4, 4° C.); 90% (pH 7.4, 25° C.); 64% (pH 7.4, 40° C.). For the same substance, the “Purity after 14 days” value (pH 4.6, 4° C.) stood at 99%; the “Purity after 14 days” value (pH 4.6, 25° C.) was found to be 97%; the “Purity after 14 days” value (pH 4.6, 40° C.) worked out at 91%; the “Purity after 14 days” value (pH 7.4, 4° C.) is 96%; the “Purity after 14 days” value (pH 7.4, 25° C.) was 84%; the “Purity after 14 days” value (pH 7.4, 40° C.) was 53%.
In the case of “Tza-S-Q-G-T-F-T-S-D-I-S-K-Q-Nle-ESRRAQEFIEWLLATGPESGAPPPSC(VS-DO3A(Ga))-NH2 [SEQ ID NO 36]”, the “Purity after 7 days” value (pH 4.6, 4° C.) worked out at 100%; the “Purity after 7 days” value (pH 4.6, 25° C.) is reported as 99%; the “Purity after 7 days” value (pH 4.6, 40° C.) is recorded as 94%; the “Purity after 7 days” value (pH 7.4, 4° C.) amounted to 97%; the “Purity after 7 days” value (pH 7.4, 25° C.) is 81%; the “Purity after 7 days” value (pH 7.4, 40° C.) turned out to be 47%. In addition, the “Purity after 14 days” value reads like this: (pH 4.6, 4° C.) 99%; (pH 4.6, 25° C.) 97%; (pH 4.6, 40° C.) 84%; (pH 7.4, 4° C.) 94%; (pH 7.4, 25° C.) 67%; (pH 7.4, 40° C.) 33%.
In the case of “Tza-S-Q-G-T-F-T-S-D-I-S-K-Q-Nle-ESRRAQEFIEWLLATGPESGAPPPSC(VS-DO3A)-NH2 [SEQ ID NO 35]”, the “Purity after 7 days” value runs as follows: (pH 4.6, 4° C.) 100%; (pH 4.6, 25° C.) 97%; (pH 4.6, 40° C.) 92%; (pH 7.4, 4° C.) 98%; (pH 7.4, 25° C.) 90%; (pH 7.4, 40° C.) 64%. Further, the “Purity after 14 days” value is, setting by setting: (pH 4.6, 4° C.) 99%; (pH 4.6, 25° C.) 97%; (pH 4.6, 40° C.) 91%; (pH 7.4, 4° C.) 96%; (pH 7.4, 25° C.) 84%; (pH 7.4, 40° C.) 53%.
For the substance “Tza-SQGTFTSDYSKQLDEQRAQEFIEWLLATGPESGAPPPSC(VS-DO3A(Ga))-NH2 [SEQ ID NO 50]”, the “Purity after 7 days” value (pH 4.6, 4° C.) stood at 100%; the “Purity after 7 days” value (pH 4.6, 25° C.) turned out to be 99%; the “Purity after 7 days” value (pH 4.6, 40° C.) amounted to 94%; the “Purity after 7 days” value (pH 7.4, 4° C.) amounted to 97%; the “Purity after 7 days” value (pH 7.4, 25° C.) was 81%; the “Purity after 7 days” value (pH 7.4, 40° C.) amounted to 47%. Also, the “Purity after 14 days” value is listed as 99% (pH 4.6, 4° C.); 97% (pH 4.6, 25° C.); 84% (pH 4.6, 40° C.); 94% (pH 7.4, 4° C.); 67% (pH 7.4, 25° C.); 33% (pH 7.4, 40° C.).
For the substance “Tza-SQGTFTSDYSKQLESRRAQEFIEWLLAGGPESGAPPPSC(VS-DO3A(Ga))-NH2 [SEQ ID NO 8]”, the “Purity after 7 days” value stood at 100% (pH 4.6, 4° C.); 99% (pH 4.6, 25° C.); 94% (pH 4.6, 40° C.); 97% (pH 7.4, 4° C.); 81% (pH 7.4, 25° C.); 47% (pH 7.4, 40° C.). The “Purity after 14 days” value is listed as 99% (pH 4.6, 4° C.); 97% (pH 4.6, 25° C.); 84% (pH 4.6, 40° C.); 94% (pH 7.4, 4° C.); 67% (pH 7.4, 25° C.); 33% (pH 7.4, 40° C.).
Consider “Tza-SQGTFTSDYSKQLESRRAQEFIEWLLAGGPESGAPPPSC(VS-DO3A)-NH2 [SEQ ID NO 6]”, for which the “Purity after 7 days” value reads like this: (pH 4.6, 4° C.) 100%; (pH 4.6, 25° C.) 97%; (pH 4.6, 40° C.) 92%; (pH 7.4, 4° C.) 98%; (pH 7.4, 25° C.) 90%; (pH 7.4, 40° C.) 64%. The “Purity after 14 days” value reads like this: (pH 4.6, 4° C.) 99%; (pH 4.6, 25° C.) 97%; (pH 4.6, 40° C.) 91%; (pH 7.4, 4° C.) 96%; (pH 7.4, 25° C.) 84%; (pH 7.4, 40° C.) 53%.
